Earlier results, collected in US7476665B2, “Benzodiazepine CGRP receptor antagonists” (Merck & Co., Inc., priority 2003, dated 2009).
Read-outs that look alike come from different tables or passages of the source. Where no end group is shown, it is not given here.

Key:
facial blood flow [1] = details: marmoset, electrical stimulation of the trigeminal ganglion (Doods et al. 2000)
facial blood flow [2] = details: rat, trigeminal ganglion stimulation (Escott et al. 1995)
middle meningeal artery = details: rats, electrical stimulation of the dura mater, prior administration (Williamson et al. 1997)

Row | Compound | effect on increase of facial blood flow (facial blood flow [1]) | effect on increase of facial blood flow (facial blood flow [2]) | effect on increase of middle meningeal artery diameter (middle meningeal artery)
1 | NCCCC[C@H](NC(=O)[C@@H](Cc1cc(Br)c(O)c(Br)c1)NC(=O)N1CCC(N2Cc3ccccc3NC2=O)CC1)C(=O)N1CCN(c2ccncc2)CC1 [BIBN4096BS] | blocked |  | 
2 | CGRP(8-37): a peptide CGRP antagonist (VTHRLAGLLSRSGGVVKNNFVPTNVGSKAF; ends and bridges not checked; UniProt P06881 90-119, looked up, fragment) |  | inhibited | blocked
